# Tests used:
# [1] = tested on: MC38 murine colon carcinoma; test: Example 2: tumor growth delay in MC38 syngeneic model, HBI-8000 alone and with PD-L1 inhibitor antibody; assay type: in vivo, C57BL/6 mice; conditions: HBI-8000 50 mg/kg p.o. qd×21, anti-PDL-1 5 mg/kg i.p. biwk×3
# Experimental: In the present example, HBI-8000 was tested as monotherapy and in combination with PD-L1 inhibitor antibody at 5 mg/kg. The experiment included a vehicle-treated group and a PD-L1 inhibitor antibody monotherapy group, which served as the control groups for analysis of efficacy. Tumors were measured twice per week until the study was ended on Day 50. Each animal was euthanized when its tumor attained the endpoint tumor volume of 1000 mm^3 or on the final day of the study, whichever came first, and the time to endpoint (TTE) for each mouse was calculated. Treatment response was determined from an analysis of percent tumor growth delay (% TGD), defined as the percent increase in the median time to endpoint (TTE) for treated versus control mice; and by logrank significance of differences in survival among groups and regression responses.
# Mice: Details of the animals used in this example can be found in Example 1.
# Tumor Cell Culture: Details of the tumor cells used in this example can be found in Example 1.
# Tumor Implantation and Measurement: Details of tumor implantation and measurement of tumor growth used in this example can be found in paragraph Example 1. […]
# Statistics: Details of the statistics and software used in this study can be found in Example 1. […] Table 3.1 describes the values calculated for TTE and % TGD for each treatment group.
# HDAC 1 = HDAC 1 (Homo sapiens, UniProt Q13547); conditions: cited from earlier work
# HDAC 3 = HDAC 3 (Homo sapiens, UniProt O15379); conditions: cited from earlier work
# HDAC 10 = target: T1, HDAC 10 (Homo sapiens, UniProt Q969S8); conditions: cited from earlier work
# T1 sequence (Q969S8 1-669): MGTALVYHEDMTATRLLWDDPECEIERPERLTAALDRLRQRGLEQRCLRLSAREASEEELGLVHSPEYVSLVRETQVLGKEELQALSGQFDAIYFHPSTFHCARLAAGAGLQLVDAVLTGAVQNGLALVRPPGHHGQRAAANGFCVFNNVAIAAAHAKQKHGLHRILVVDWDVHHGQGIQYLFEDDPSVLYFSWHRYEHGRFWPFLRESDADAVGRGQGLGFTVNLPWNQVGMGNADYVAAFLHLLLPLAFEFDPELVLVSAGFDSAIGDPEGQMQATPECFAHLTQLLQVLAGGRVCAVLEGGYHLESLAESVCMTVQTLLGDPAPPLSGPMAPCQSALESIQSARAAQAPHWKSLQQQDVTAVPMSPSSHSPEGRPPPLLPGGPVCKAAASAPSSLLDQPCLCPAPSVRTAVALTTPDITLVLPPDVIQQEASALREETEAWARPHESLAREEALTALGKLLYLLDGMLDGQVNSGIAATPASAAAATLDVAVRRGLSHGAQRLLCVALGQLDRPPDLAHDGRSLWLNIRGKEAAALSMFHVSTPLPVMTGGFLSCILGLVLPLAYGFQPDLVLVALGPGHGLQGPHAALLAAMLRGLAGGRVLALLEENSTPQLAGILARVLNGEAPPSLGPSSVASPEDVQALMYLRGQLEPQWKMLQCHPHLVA
# [2] = oral administration; cited from earlier work
# Chain of HDAC 1 (Q13547 whole entry): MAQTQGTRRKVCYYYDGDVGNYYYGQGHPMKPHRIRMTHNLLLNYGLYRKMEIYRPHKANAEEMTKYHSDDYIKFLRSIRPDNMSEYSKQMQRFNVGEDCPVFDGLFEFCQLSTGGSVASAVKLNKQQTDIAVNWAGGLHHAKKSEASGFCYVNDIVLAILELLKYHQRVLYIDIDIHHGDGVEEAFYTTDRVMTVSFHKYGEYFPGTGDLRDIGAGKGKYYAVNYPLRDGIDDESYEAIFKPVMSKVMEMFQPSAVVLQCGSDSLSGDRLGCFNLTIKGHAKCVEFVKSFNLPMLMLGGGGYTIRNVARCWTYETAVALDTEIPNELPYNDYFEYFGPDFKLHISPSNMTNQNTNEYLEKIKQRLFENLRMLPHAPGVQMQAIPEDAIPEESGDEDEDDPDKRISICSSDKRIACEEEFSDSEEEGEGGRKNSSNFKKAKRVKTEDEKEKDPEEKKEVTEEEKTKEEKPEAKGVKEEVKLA
# Chain of HDAC 3 (O15379 whole entry): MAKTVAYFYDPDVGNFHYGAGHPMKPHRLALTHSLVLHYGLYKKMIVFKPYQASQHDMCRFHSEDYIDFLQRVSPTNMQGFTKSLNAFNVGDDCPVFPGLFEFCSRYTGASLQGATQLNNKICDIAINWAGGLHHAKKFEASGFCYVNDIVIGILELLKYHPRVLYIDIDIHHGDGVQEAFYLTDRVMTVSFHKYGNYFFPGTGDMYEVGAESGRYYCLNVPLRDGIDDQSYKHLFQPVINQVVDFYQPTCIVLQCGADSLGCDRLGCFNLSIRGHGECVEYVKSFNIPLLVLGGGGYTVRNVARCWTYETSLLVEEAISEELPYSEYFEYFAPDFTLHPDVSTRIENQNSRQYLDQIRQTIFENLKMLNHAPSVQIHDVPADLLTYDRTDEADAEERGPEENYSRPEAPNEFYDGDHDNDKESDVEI
# Chain of HDAC 3 (Q9Y618 395-489 partner limits assumed): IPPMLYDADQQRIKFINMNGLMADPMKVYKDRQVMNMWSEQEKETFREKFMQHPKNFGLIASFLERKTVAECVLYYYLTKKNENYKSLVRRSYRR
smiles,measurement,setting,value
"Nc1cc(F)ccc1NC(=O)c1ccc(CNC(=O)/C=C/c2cccnc2)cc1 [HBI-8000, N-(2-amino-4-fluorophenyl)-4-[[[(2E)-1-oxo-3-(3-pyridinyl)-2-propen-1-yl]amino]methyl]benzamide]",Median TTE,[1]; endpoint 1000 mm^3 or Day 50,28.4 days
same,% TGD,[1]; versus vehicle,62%
same,inhibition of HDAC 1,HDAC 1,low nanomolar concentrations
same,activity at HDAC 1 compared with Entinostat,HDAC 1; versus Entinostat,more active than Entinostat
same,inhibition of HDAC 3,HDAC 3,low nanomolar concentrations
same,activity at HDAC 3 compared with Entinostat,HDAC 3; versus Entinostat,more active than Entinostat
same,inhibition of HDAC 10,HDAC 10,low nanomolar concentrations
same,activity at HDAC 10 compared with Entinostat,HDAC 10; versus Entinostat,more active than Entinostat
same,t1/2,[2],about 17 hours

# — patent publication US11535670B2, “Combination therapies of HDAC inhibitors and PD-L1 inhibitors” (HUYABIO International, LLC, priority 2016, dated 2022)
